Data published in PubChem BioAssay (NCI).
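These data come from cells grown in 96-well plates and exposed to compound for 48 hours at five concentrations. TGI: total growth inhibition.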

Key:
Experiment in all cases: NCI tumour cell line growth inhibition, 48 h
DLD-1 colon = system: DLD-1 colon
HOP-18 NSCLC = system: HOP-18 NSCLC
KM20L2 colon = system: KM20L2 colon
M19-MEL melanoma = system: M19-MEL melanoma
SNB-78 CNS = system: SNB-78 CNS
XF 498 CNS = system: XF 498 CNS
P388 leukemia = system: P388 leukemia
SN12K1 renal = system: SN12K1 renal
RXF-631 renal = system: RXF-631 renal

Row | SMILES | TGI (DLD-1 colon) | TGI (HOP-18 NSCLC) | TGI (KM20L2 colon) | TGI (M19-MEL melanoma) | TGI (SNB-78 CNS) | TGI (XF 498 CNS) | TGI (P388 leukemia) | TGI (SN12K1 renal) | TGI (RXF-631 renal)
1 | O=c1c2c(nc3n1CCC3)sc1c(O)c(Br)ccc12 | > 100 µM | > 100 µM | 35.9 µM | 32.8 µM | > 100 µM | 36.8 µM | – | – | –
2 | Nc1c(N=Nc2ccc(-c3ccc(N=Nc4c(O)ccc5cc(S(=O)(=O)O)cc(S(=O)(=O)O)c45)cc3)cc2)c(S(=O)(=O)O)cc2cc(S(=O)(=O)O)c(N=Nc3ccccc3)c(O)c12 | > 100 µM | > 100 µM | – | > 100 µM | > 100 µM | > 100 µM | > 100 µM | > 100 µM | –
3 | CCN(CC)CCCCC1CCN(CC(=O)N2c3ccccc3NC(=O)CC2C)CC1 (centres undefined) | – | > 100 µM | > 100 µM | > 100 µM | > 100 µM | – | – | – | > 100 µM
4 | OC12CCCCCC1(N1CCOCC1)c1ccccc12 (centres undefined) | – | > 100 µM | > 100 µM | > 100 µM | > 100 µM | – | – | – | –
5 | CCOc1ccc(-c2oc(/C=N/NS(=O)(=O)c3ccc(C)cc3)c([N+](=O)[O-])c2-c2ccc(OCC)cc2)cc1 | 17.6 µM | – | 31.9 µM | 13.3 µM | 34.6 µM | – | – | – | –
6 | O=C(OCc1ccccc1C1CSCSC1)c1cc(C(=O)OCc2ccccc2C2CSCSC2)c(C(=O)OCc2ccccc2C2CSCSC2)cc1C(=O)OCc1ccccc1C1CSCSC1 | > 100 µM | > 100 µM | > 100 µM | > 100 µM | > 100 µM | – | – | – | –
7 | Cc1cc2occ(-c3ccc(Cl)cc3)c2c(=O)o1 | > 100 µM | > 100 µM | > 100 µM | – | > 100 µM | – | – | – | > 100 µM
8 | COC(=O)n1c(C[P+](c2ccccc2)(c2ccccc2)c2ccccc2)cc2ccccc21 | 11.4 µM | – | 10.7 µM | 13.1 µM | 17.9 µM | 6.09 µM | – | – | –
9 | O=S1(=O)CCN(c2ccccc2CC(c2c[nH]c3ccccc23)c2c[nH]c3ccccc23)CC1 | 21.4 µM | 32.7 µM | 27.8 µM | 23 µM | 74.3 µM | – | – | – | –
10 | Cc1cc(=O)[nH]c(NNC(C#N)c2ccc([N+](=O)[O-])cc2)n1 (centres undefined) | > 100 µM | > 100 µM | > 100 µM | > 100 µM | > 100 µM | – | – | – | –
11 | CC(=O)NC1=C(NCC(C)C)C(=O)c2ccccc2C1=O | 40.1 µM | 29.5 µM | 43.9 µM | 34.2 µM | 89.1 µM | 27 µM | – | – | –
12 | CC1(C)COC(c2c(-c3ccccc3)noc2CS(=O)c2ccccc2)=N1 (centres undefined) | > 100 µM | 86.4 µM | > 100 µM | > 100 µM | > 100 µM | – | – | – | –
13 | C/C(=N\Nc1ccccc1)C(CN(C)C)C(c1ccccc1)c1c(O)c2ccccc2oc1=O (centres undefined) | – | – | > 100 µM | > 100 µM | – | – | – | – | > 100 µM
14 | COC(=O)CC(NC(=O)OCc1ccccc1)C(C(=O)OCc1ccccc1)C1(C)OCCO1 (centres undefined) | > 100 µM | – | > 100 µM | > 100 µM | – | 42.3 µM | – | – | > 100 µM
15 | C/C(=C\Cc1cc(O)ccc1O)CCc1c(C)cc(O)c(C=O)c1C | 55.1 µM | 53.4 µM | > 100 µM | – | – | 45.2 µM | – | – | –
